# Source: patent US20230106943A1, “ENGINEERED ANTIMICROBIAL PEPTIDES AND USAGE THEREOF” (Peptilogics, Inc., priority 2021, published 2023)
# No end group written: not given here.
# Assay: Example 4 stability of concentrated solutions: HPLC-UV Assay/RS (method 78917)
# Type: physicochemical
# Description: The peptide formulation of SEQ ID NO: 1 dissolved in a saline solution with a pH of 5.0±0.1 was tested for stability under either −20° C. or 40° C. with 75% relative humidity (RH). […]
# [1] = 15.3 mg/mL solution, 40° C. and 75% RH, 1 Month
# [2] = 15.3 mg/mL solution, 40° C. and 75% RH, 2 Month
# [3] = 15.3 mg/mL solution, 40° C. and 75% RH, 3 Month
# [4] = 15.3 mg/mL solution, 40° C. and 75% RH, 6 Month
# [5] = 15.3 mg/mL solution, −20° C., 0 Month
# [6] = 15.3 mg/mL solution, −20° C., 1 Month
# [7] = 15.3 mg/mL solution, −20° C., 2 Month
# [8] = 15.3 mg/mL solution, −20° C., 3 Month
# [9] = 15.3 mg/mL solution, −20° C., 6 Month
# [10] = 15.3 mg/mL solution, −20° C., 9 Month
# [11] = 36.7 mg/mL solution, 40° C. and 75% RH, 1 Month
# [12] = 36.7 mg/mL solution, 40° C. and 75% RH, 2 Month
# [13] = 36.7 mg/mL solution, 40° C. and 75% RH, 3 Month
# [14] = 36.7 mg/mL solution, 40° C. and 75% RH, 6 Month
# [15] = 36.7 mg/mL solution, −20° C., 0 Month
# [16] = 36.7 mg/mL solution, −20° C., 1 Month
substance,measurement,setting,value
RRWVRRVRRVWRRVVRVVRRWVRR-NH2 [SEQ ID NO: 1],HPLC-UV Assay/RS % Assay,[1],96.0%
same,HPLC-UV Assay/RS % Purity,[1],99%
same,HPLC-UV Assay/RS % Total Impurities,[1],1.0%
same,RRT 1.02 Mean % Area,[1],1.0%
same,RRT […] area (Inj-1),[1],0.97%
same,RRT […] area (Inj-2),[1],0.95%
same,SEQ ID NO: 1 % area (Inj-1),[1],99.03%
same,SEQ ID NO: 1 % area (Inj-2),[1],99.05%
same,SEQ ID NO: 1 Mean % Area,[1],99.0%
same,HPLC-UV Assay/RS % Assay,[2],103.8%
same,HPLC-UV Assay/RS % Purity,[2],99%
same,HPLC-UV Assay/RS % Total Impurities,[2],1.4%
same,"HPLC-UV Assay/RS Impurities RRT/%, RRT 1.02",[2],1.02/1.0%
same,"HPLC-UV Assay/RS Impurities RRT/%, RRT 1.08",[2],1.08/0.2%
same,"HPLC-UV Assay/RS Impurities RRT/%, RRT 1.10",[2],1.10/0.2%
same,HPLC-UV Assay/RS % Assay,[3],96.8%
same,HPLC-UV Assay/RS % Purity,[3],99%
same,HPLC-UV Assay/RS % Total Impurities,[3],1.3%
same,"HPLC-UV Assay/RS Impurities RRT/%, RRT 1.02",[3],1.02/1.1%
same,"HPLC-UV Assay/RS Impurities RRT/%, RRT 1.25",[3],1.25/0.2%
same,% assay,[4],97.5%
same,HPLC-UV Assay/RS % Purity,[4],98%
same,HPLC-UV Assay/RS % Total Impurities,[4],2.5%
same,HPLC-UV Assay/RS % Assay,[5],99.8%
same,HPLC-UV Assay/RS % Purity,[5],99.0%
same,HPLC-UV Assay/RS % Total Impurities,[5],1.0%
same,RRT 1.02 Mean % Area,[5],1.0%
same,RRT […] area (Inj-1),[5],1.05%
same,RRT […] area (Inj-2),[5],1.03%
same,SEQ ID NO: 1 % area (Inj-1),[5],98.95%
same,SEQ ID NO: 1 % area (Inj-2),[5],98.97%
same,SEQ ID NO: 1 Mean % Area,[5],99.0%
same,HPLC-UV Assay/RS % Assay,[6],103.4%
same,HPLC-UV Assay/RS % Purity,[6],99%
same,HPLC-UV Assay/RS % Total Impurities,[6],0.9%
same,RRT 1.02 Mean % Area,[6],0.9%
same,RRT […] area (Inj-1),[6],0.88%
same,RRT […] area (Inj-2),[6],0.87%
same,SEQ ID NO: 1 % area (Inj-1),[6],99.12%
same,SEQ ID NO: 1 % area (Inj-2),[6],99.13%
same,SEQ ID NO: 1 Mean % Area,[6],99.1%
same,HPLC-UV Assay/RS % Assay,[7],106.0%
same,HPLC-UV Assay/RS % Purity,[7],99%
same,HPLC-UV Assay/RS % Total Impurities,[7],0.9%
same,"HPLC-UV Assay/RS Impurities RRT/%, RRT 1.02",[7],1.02/0.9%
same,HPLC-UV Assay/RS % Assay,[8],99.7%
same,HPLC-UV Assay/RS % Purity,[8],99%
same,HPLC-UV Assay/RS % Total Impurities,[8],0.9%
same,"HPLC-UV Assay/RS Impurities RRT/%, RRT 1.02",[8],1.02/0.9%
same,HPLC-UV Assay/RS % Assay,[9],102.1%
same,HPLC-UV Assay/RS % Purity,[9],99%
same,HPLC-UV Assay/RS % Total Impurities,[9],0.9%
same,"HPLC-UV Assay/RS Impurities RRT/%, RRT 1.02",[9],1.02/0.9%
same,HPLC-UV Assay/RS % Assay,[10],101.0%
same,HPLC-UV Assay/RS % Purity,[10],100%
same,HPLC-UV Assay/RS % Total Impurities,[10],0.3%
same,"HPLC-UV Assay/RS Impurities RRT/%, RRT 1.01",[10],1.01/0.3%
same,% Purity,[11],99%
same,% Total Impurities,[11],0.9%
same,HPLC-UV % Assay,[11],97.5%
same,RRT 1.02 impurity % area (Inj-1),[11],0.94 % area
same,RRT 1.02 impurity % area (Inj-2),[11],0.91 % area
same,RRT 1.02 impurity Mean % Area,[11],0.9 % Area
same,SEQ ID NO: 1 peak % area (Inj-1),[11],99.06 % area
same,SEQ ID NO: 1 peak % area (Inj-2),[11],99.09 % area
same,SEQ ID NO: 1 peak Mean % Area,[11],99.1 % Area
same,% Purity,[12],99%
same,% Total Impurities,[12],1.2%
same,HPLC-UV % Assay,[12],101.7%
same,% Purity,[13],99%
same,% Total Impurities,[13],1.5%
same,HPLC-UV % Assay,[13],97.3%
same,% Purity,[14],97%
same,% Total Impurities,[14],3.0%
same,HPLC-UV % Assay,[14],94.8%
same,HPLC-UV Assay/RS % Assay,[15],97.9%
same,HPLC-UV Assay/RS % Purity,[15],99.0%
same,HPLC-UV Assay/RS % Total Impurities,[15],1.0%
same,RRT 1.02 Mean % Area,[15],1.0%
same,RRT […] area (Inj-1),[15],1.02%
same,RRT […] area (Inj-2),[15],1.03%
same,SEQ ID NO: 1 % area (Inj-1),[15],98.98%
same,SEQ ID NO: 1 % area (Inj-2),[15],98.97%
same,SEQ ID NO: 1 Mean % Area,[15],99.0%
same,HPLC-UV Assay/RS % Assay,[16],98.6%
same,HPLC-UV Assay/RS % Purity,[16],99%
same,HPLC-UV Assay/RS % Total Impurities,[16],0.9%
same,RRT 1.02 Mean % Area,[16],0.9%
same,RRT […] area (Inj-1),[16],0.87%
same,RRT […] area (Inj-2),[16],0.88%
